This series in a line: Solubility of Compound 1 malate after 24 hours in Dissolution Test Solution 1 of the Japanese Pharmacopoeia with 5% surfactant. The format is physicochemical. The following applies: thermodynamic from solid. The protocol: The surfactants shown in Table 3 and Dissolution Test Solution 1 of the Japanese Pharmacopoeia were used, and the concentration of each surfactant was adjusted to 5%. Compound 1 malate was sufficiently added thereto, the mixture was stirred, and the solubility after 24 hours was measured.

The values that follow come from patent US9814776B2, “Pharmaceutical preparation comprising aminopyrazole derivative” (Chugai Seiyaku Kabushiki Kaisha, priority 2013, dated 2017).

Values after ≈ are worked out from the molar mass of the structure shown.

Consider `Cc1nc2cc(-n3ncc(C(=O)c4cc5ccccc5[nH]4)c3N)ccc2[nH]1` [Compound 1, [5-amino-1-(2-methyl-3H-benzimidazol-5-yl)-1H-pyrazol-4-yl]-(1H-indol-2-yl)-methanone], for which the solubility at 24 h is, setting by setting: (pH 1.2, aqueous with cosolvent or surfactant or cyclodextrin, 5% Polyoxyethylene (10) octylphenyl ether) 145 µg/mL (≈ 406 µM); (pH 1.2, aqueous with cosolvent or surfactant or cyclodextrin, 5% Polysorbate 80) 138 µg/mL (≈ 388 µM); (pH 1.2, aqueous with cosolvent or surfactant or cyclodextrin, 5% Sodium lauryl sulfate) 136 µg/mL (≈ 383 µM); (pH 1.2, simulated gastric fluid, no surfactant) 18.5 µg/mL (≈ 51.9 µM).

In general, solubility refers to how much of the substance goes into solution per volume. Higher therefore signals a readily soluble substance.
